Where a name gives a salt, the structure may show the parent alone.
Biological target: T1, mGluR5 receptor (Sus scrofa, UniProt I3LUI7)
T1 construct: 450 μg of protein from brain homogenate with 5 nM ^3[H]-MPEP; from tissue; host or cells: pig brain halves without medulla, cerebellum and pons
Assay: [3H]-MPEP mGluR5 receptor binding assay (pig brain homogenate)
Conditions: 5 nM [3H]-MPEP; for % Inhibition of mGluR5 Receptor (pig) [^3H]-MPEP Bond at 10 μM / inhibition at 10 µM: 10 μM compound; for inhibition at 10 µM: read-out: % Inhibition of mGluR5 Receptor (pig) [^3H]-MPEP Bond at 10 μM; for IC50: read-out: IC50 mGluR5 Receptor (pig) [^3H]-MPEP Bond
Experimental: I. Method for Determining the Inhibition of the [^3H]-MPEP Bond in the mGluR5 Receptor Binding Assay
Pig brain homogenate is produced by homogenizing (Polytron PT 3000, Kinematica AG, 10 000 rpm for 90 seconds) pig brain halves without medulla, cerebellum and pons in pH 8.0 buffer (20 mM Hepes, Sigma, order no. H3375+1 complete tablet, 100 ml, Roche Diagnostics, order no. 1836145) in the ratio of 1:20 (brain weight/volume) and differential centrifuging at 900×g and 40 000×g. In incubation batches of 250 μl in 96-well microtitre plates 450 μg of protein from brain homogenate with 5 nM ^3[H]-MPEP (Tocris, order no. R1212) (MPEP=[…]) and the compounds to be examined (10 μM in test) in buffer (as above) are respectively incubated at room temperature for 60 minutes.
The batches are then filtered using a Brandel cell harvester (Brandel, Robotic 9600) on unifilter plates with fibreglass filter mats (Perkin Elmer, order no. 6005177) and then washed with buffer (as above) 3-times each with 250 μl per sample. The filter plates are then dried for 60 mins. at 55° C. Then, 30 μL of Ultima Gold™ scintillator (Packard BioScience, order no. 6013159) are added per well and after 3 hours the samples are measured on the β-counter (MicroBeta, Perkin Elmer). The non-specific binding is determined by adding 10 μM of MPEP (Tocris, order no. 1212).

T1 sequence (I3LUI7 19-1212): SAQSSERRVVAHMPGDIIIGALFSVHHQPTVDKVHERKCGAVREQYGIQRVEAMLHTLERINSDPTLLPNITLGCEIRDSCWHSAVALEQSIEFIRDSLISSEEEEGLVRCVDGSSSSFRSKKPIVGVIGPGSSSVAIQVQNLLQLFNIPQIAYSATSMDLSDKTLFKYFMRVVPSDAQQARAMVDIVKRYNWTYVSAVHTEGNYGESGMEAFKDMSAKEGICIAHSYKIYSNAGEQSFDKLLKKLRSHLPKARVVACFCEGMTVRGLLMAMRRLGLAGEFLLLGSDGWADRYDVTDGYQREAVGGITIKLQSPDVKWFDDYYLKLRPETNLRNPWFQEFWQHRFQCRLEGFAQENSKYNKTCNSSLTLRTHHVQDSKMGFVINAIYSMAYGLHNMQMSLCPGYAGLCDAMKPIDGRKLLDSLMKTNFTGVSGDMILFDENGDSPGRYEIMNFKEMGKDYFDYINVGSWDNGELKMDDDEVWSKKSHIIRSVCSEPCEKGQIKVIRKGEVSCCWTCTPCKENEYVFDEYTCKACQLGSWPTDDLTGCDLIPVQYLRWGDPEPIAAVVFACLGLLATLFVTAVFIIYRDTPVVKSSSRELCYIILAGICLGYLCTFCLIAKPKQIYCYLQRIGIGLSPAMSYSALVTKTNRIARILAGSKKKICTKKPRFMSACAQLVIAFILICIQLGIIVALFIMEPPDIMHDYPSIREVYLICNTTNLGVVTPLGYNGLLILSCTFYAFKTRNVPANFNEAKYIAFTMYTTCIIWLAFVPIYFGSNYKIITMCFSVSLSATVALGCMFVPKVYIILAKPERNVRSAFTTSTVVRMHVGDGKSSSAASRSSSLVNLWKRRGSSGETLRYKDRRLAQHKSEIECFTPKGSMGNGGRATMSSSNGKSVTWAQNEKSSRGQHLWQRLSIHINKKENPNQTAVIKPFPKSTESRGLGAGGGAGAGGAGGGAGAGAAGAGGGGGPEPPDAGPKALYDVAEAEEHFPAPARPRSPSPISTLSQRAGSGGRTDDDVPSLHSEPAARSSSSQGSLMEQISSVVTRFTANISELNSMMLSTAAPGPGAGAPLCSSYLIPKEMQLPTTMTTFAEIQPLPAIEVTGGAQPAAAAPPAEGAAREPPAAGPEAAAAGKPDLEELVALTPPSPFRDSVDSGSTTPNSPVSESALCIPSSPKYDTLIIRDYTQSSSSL

| inhibition at 10 µM | Compound | also measured |
| --- | --- | --- |
|  | O=S(=O)(c1ccccc1)N(Cc1cc(-c2ccc3ncnc(NC4CC4)c3c2)ccc1F)C1CC1 [Example 368, N-cyclopropyl-N-(5-(4-(cyclopropylamino)quinazolin-6-yl)-2-fluorobenzyl)benzole sulfonamide] | % Inhibition of mGluR5 Receptor (pig) [^3H]-MPEP Bond at 10 μM: 85% |
| 40% | CC(C)Nc1ncnc2ccc(-c3cccc(CN(Cc4ccccc4)C(=O)c4ccccc4Cl)c3)cc12 [Example 150, N-benzyl-2-chloro-N-[3-(4-isopropylamino-quinazolin-6-yl)-benzyl]-benzamide] |  |
| 48% | CCCN(Cc1cccc(-c2ccc3ncnc(Nc4ccccc4)c3c2)c1)C(=O)c1ccco1 [Example 120, furan-2-carboxylic acid [3-(4-phenylamino-quinazolin-6-yl)-benzyl]-propyl-amide] |  |
|  | O=C1CC(c2ccccc2)C(=O)N1Cc1cccc(-c2ccc3ncnc(NC4CC4)c3c2)c1 (centres unmarked) [Example 229, 1-[3-(4-cyclopropylamino-quinazolin-6-yl)-benzyl]-3-phenyl-pyrrolidine-2,5-dione; hydrochloride] | IC50: 3500 nM |
| 81% | N#CCC(=O)N(Cc1ccc(F)c(-c2ccc3ncnc(NC4CC4)c3c2)c1)C1CC1 [Example 900, 2-cyano-N-cyclopropyl-N-(3-(4-(cyclopropylamino)quinazolin-6-yl)-4-fluorobenzyl)acetamide] |  |
| 35% | O=C(c1cccnc1)N(Cc1cccc(-c2ccc3ncnc(NCCc4ccccc4)c3c2)c1)C1CC1 [Example 385, N-cyclopropyl-N-(3-(4-(phenethylamino)quinazolin-6-yl)benzyl)nicotinamide] |  |
|  | O=C(c1ccncc1)N(Cc1cccc(-c2ccc3ncnc(NC4CC4)c3c2)c1)C1CC1 [Example 257, N-cyclopropyl-N-[3-(4-cyclopropylamino-quinazolin-6-yl)-benzyl]-isonicotinamide] | IC50: 740 nM |
| 95% | CC(=O)N(Cc1cccc(-c2ccc3ncnc(NCCc4ccccc4)c3c2)c1)C1CC1 [Example 393, N-cyclopropyl-N-(3-(4-(phenethylamino)quinazolin-6-yl)benzyl)acetamide] |  |
| 106% | Cc1nc(NC2CC2)c2cc(-c3ccc(F)c(CN(C(=O)c4c(F)c(F)c(F)c(F)c4F)C4CC4)c3)ccc2n1 [Example 574, N-cyclopropyl-N-(5-(4-(cyclopropylamino)-2-methylquinazolin-6-yl)-2-fluorobenzyl)-2,3,4,5,6-pentafluorobenzamide] |  |
|  | O=C(C=Cc1ccccc1)N(Cc1cccc(-c2ccc3ncnc(NC4CC4)c3c2)c1)C1CC1 [Example 255, N-cyclopropyl-N-[3-(4-cyclopropylamino-quinazolin-6-yl)-benzyl]-3-phenyl-acrylamide] | IC50: 1850 nM |
|  | CN(Cc1cccc(-c2ccc3ncnc(NC4CC4)c3c2)c1)S(C)(=O)=O [Example 223, N-(3-(4-(cyclopropylamino)quinazolin-6-yl)benzyl)-N-methyl methane sulfonamide] | % Inhibition of mGluR5 Receptor (pig) [^3H]-MPEP Bond at 10 μM: 51% |
| 98% | O=C(c1ccccc1C(F)(F)F)N(Cc1cccc(-c2ccc3ncnc(NC4CC4)c3c2)c1)C1CC1 [Example 167, N-cyclopropyl-N-[3-(4-cyclopropylamino-quinazolin-6-yl)-benzyl]-2-trifluoromethyl-benzamide] |  |
| 63% | CC(=O)N(Cc1cccc(-c2ccc3ncnc(NC4CC4)c3c2)c1)C1CCCC1 [Example 209, N-cyclopentyl-N-(3-(4-(cyclopropylamino)quinazolin-6-yl)benzyl)acetamide] |  |
|  | CC(=O)N(Cc1cc(-c2ccc3ncnc(NC(C)(C)C)c3c2)ccc1F)C1CC1 [Example 844, N-(5-(4-(tert-butylamino)quinazolin-6-yl)-2-fluorobenzyl)-N-cyclopropyl acetamide] | % Inhibition of mGluR5 Receptor (pig) [^3H]-MPEP Bond at 10 μM: 94% |
| 86% | Cc1cc2ncnc(NC3CC3)c2cc1-c1cccc(CN(C2CC2)S(=O)(=O)C(C)C)c1 [Example 705, N-cyclopropyl-N-(3-(4-(cyclopropylamino)-7-methylquinazolin-6-yl)benzyl)propane-2-sulfonamide] |  |
| 78% | CC(=O)N(Cc1ccc(F)c(-c2ccc3ncnc(NC4CC4)c3c2)c1)C1CC1 [Example 896, N-cyclopropyl-N-(3-(4-(cyclopropylamino)quinazolin-6-yl)-4-fluorobenzyl)acetamide] |  |

| inhibition at 10 µM | Compound | also measured |
| --- | --- | --- |
|  | CC(C)(C)Nc1ncnc2ccc(-c3ccc(F)c(CN(C(=O)c4cccs4)C4CC4)c3)cc12 [Example 819, N-(5-(4-(tert-butylamino)quinazolin-6-yl)-2-fluorobenzyl)-N-cyclopropyl thiophene-2-carboxamide] | % Inhibition of mGluR5 Receptor (pig) [^3H]-MPEP Bond at 10 μM: 88% |
| 36% | O=C(Cc1ccccc1)N(Cc1cc(-c2ccc3ncnc(NC4CC4)c3c2)ccn1)C1CC1 [Example 841, N-cyclopropyl-N-((4-(4-(cyclopropylamino)quinazolin-6-yl)pyridin-2-yl)methyl)-2-phenylacetamide] |  |
|  | Cc1cc2ncnc(NC3CC3)c2cc1-c1cccc(CN(C2CC2)S(=O)(=O)c2c(F)c(F)c(F)c(F)c2F)c1 [Example 675, N-cyclopropyl-N-(3-(4-(cyclopropylamino)-7-methylquinazolin-6-yl)benzyl)-2,3,4,5,6-pentafluorobenzole sulfonamide] | % Inhibition of mGluR5 Receptor (pig) [^3H]-MPEP Bond at 10 μM: 48% |
| 33% | Cc1cc(C(=O)N(Cc2cc(-c3ccc4nc(C)nc(NC5CC5)c4c3)ccc2F)C2CC2)n(C)n1 [Example 542, N-cyclopropyl-N-(5-(4-(cyclopropylamino)-2-methylquinazolin-6-yl)-2-fluorobenzyl)-1,3-dimethyl-1H-pyrazole-5-carboxamide] |  |
|  | CC(=O)N(Cc1cc(-c2ccc3ncnc(NC4CC4)c3c2)ccc1Cl)C1CC1 [Example 777, N-(2-chloro-5-(4-(cyclopropylamino)quinazolin-6-yl)benzyl)-N-cyclopropyl acetamide] | IC50: 50 nM |
| 91% | CCCCC(=O)N(Cc1cc(-c2ccc3nc(C)nc(NC4CC4)c3c2)ccc1F)C1CC1 [Example 540, N-cyclopropyl-N-(5-(4-(cyclopropylamino)-2-methylquinazolin-6-yl)-2-fluorobenzyl)pentanamide] |  |
| 73% | O=S(=O)(c1cccc2cccnc12)N(Cc1cc(-c2ccc3ncnc(NC4CC4)c3c2)ccn1)C1CC1 [Example 812, N-cyclopropyl-N-((4-(4-(cyclopropylamino)quinazolin-6-yl)pyridin-2-yl)methyl)quinoline-8-sulfonamide] |  |
| 33% | Cc1cc(CNC2CC2)cc(-c2ccc3ncnc(NC4CC4)c3c2)c1 [Example 306, N-cyclopropyl-6-(3-((cyclopropylamino)methyl)-5-methylphenyl)quinazoline-4-amine] |  |
| 39% | CN(C)CC(=O)N(Cc1cc(-c2ccc3ncnc(NC4CC4)c3c2)ccc1Cl)C1CC1 [Example 733, N-(2-chloro-5-(4-(cyclopropylamino)quinazolin-6-yl)benzyl)-N-cyclopropyl-2-(dimethylamino)acetamide] |  |
|  | CC(C)(C)Nc1ncnc2ccc(-c3ccc(F)c(CN(C4CC4)S(=O)(=O)c4ccc(Cl)cc4Cl)c3)cc12 [Example 857, N-(5-(4-(tert-butylamino)quinazolin-6-yl)-2-fluorobenzyl)-2,4-dichloro-N-cyclopropyl benzole sulfonamide] | % Inhibition of mGluR5 Receptor (pig) [^3H]-MPEP Bond at 10 μM: 36% |
| 70% | O=C(c1ccc(Cl)cc1)N(Cc1cccc(-c2ccc3ncnc(NC4CC4)c3c2)c1)C1CC1 [Example 160, 4-chloro-N-cyclopropyl-N-[3-(4-cyclopropylamino-quinazolin-6-yl)-benzyl]-benzamide] |  |
| 88% | O=C(c1ccncc1)N(Cc1cccc(-c2ccc3ncnc(NC4CC4)c3c2)c1)C1CC1 [Example 165, N-cyclopropyl-N-[3-(4-cyclopropylamino-quinazolin-6-yl)-benzyl]-isonicotinamide] |  |
| 90% | O=S(=O)(Cc1ccccc1)N(Cc1cc(-c2ccc3ncnc(NC4CC4)c3c2)ccc1F)C1CC1 [Example 437, N-cyclopropyl-N-(5-(4-(cyclopropylamino)quinazolin-6-yl)-2-fluorobenzyl)-1-phenylmethane sulfonamide] |  |
| 38% | CCN(CC)c1ncnc2ccc(-c3cccc(CN(C)C(=O)c4cccc(C#N)c4)c3)cc12 [Example 69, 3-cyano-N-[3-(4-diethylamino-quinazolin-6-yl)-benzyl]-N-methyl-benzamide] |  |
| 41% | Cc1nc(NC2CC2)c2cc(-c3ccc(F)c(CN(C(=O)c4ccccn4)C4CC4)c3)ccc2n1 [Example 604, N-cyclopropyl-N-(5-(4-(cyclopropylamino)-2-methylquinazolin-6-yl)-2-fluorobenzyl)picolinamide] |  |
| 47% | c1cc(Cn2cccc2)cc(-c2ccc3ncnc(NC4CC4)c3c2)c1 [Example 876, 6-(3-((1H-pyrrol-1-yl)methyl)phenyl)-N-cyclopropylquinazoline-4-amine] |  |

— patent US20090069320A1, “Substituted 4-Amino-Quinazoline Compounds with Metabotropic Glutamate Receptor Regulating Activity and Uses Thereof” (Gruenenthal GmbH, priority 2006, published 2009)
